{
  "source": "the supplement of paper PMC10307832",
  "experiment_in_all_cases": "relative viability (nuclei count vs DMSO), 5 days (fraction); higher = more cells survive",
  "key": {"NCI-H2170": {"system": "NCI-H2170", "method_in_brief": "(§1)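 Dosing by pin tool came one day after lung cancer cell lines were seeded in 1536-well plates, using either one drug or a fixed anchor-drug dose plus five library-drug doses (not always all listed) in √10 steps. After 5 days, nuclei were counted on 4× images. Relative viability is treated-well nuclei count divided by vehicle-well nuclei count, and values are medians of duplicate plates.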"}, "NCI-H1975": {"system": "NCI-H1975", "method_in_brief": "as §1"}, "ChaGo-K-1": {"system": "ChaGo-K-1", "method_in_brief": "as §1"}, "NCI-H441": {"system": "NCI-H441", "method_in_brief": "as §1"}, "NCI-H23": {"system": "NCI-H23", "method_in_brief": "as §1"}, "A-427": {"system": "A-427", "method_in_brief": "as §1"}, "NCI-H596": {"system": "NCI-H596", "method_in_brief": "as §1"}, "HCC-366": {"system": "HCC-366", "method_in_brief": "as §1"}, "NCI-H1734": {"system": "NCI-H1734", "method_in_brief": "as §1"}, "NCI-H1666": {"system": "NCI-H1666", "method_in_brief": "as §1"}, "H3255": {"system": "H3255", "method_in_brief": "as §1"}, "PC-3 [JPC-3]": {"system": "PC-3 [JPC-3]", "conditions": "first compound 0.0002 µM", "method_in_brief": "as §1"}},
  "data": [
    {"smiles": "CC(=O)O[C@@]12CO[C@@H]1C[C@H](O)[C@@]1(C)C(=O)[C@H](O)C3=C(C)[C@@H](OC(=O)[C@H](O)[C@@H](NC(=O)OC(C)(C)C)c4ccccc4)C[C@@](O)([C@@H](OC(=O)c4ccccc4)[C@H]21)C3(C)C", "note": "[Docetaxel] + COc1cc2c(Oc3ccc(NC(=O)C4(C(=O)Nc5ccc(F)cc5)CC4)cc3F)ccnc2cc1OCCCN1CCOCC1 [Foretinib] (partner 0.25 µM)", "values": [
      {"measurement": "relative viability", "setting": "NCI-H2170; first compound 0.0002 µM", "value": 0.995},
      {"measurement": "relative viability", "setting": "NCI-H2170; first compound 0.000632 µM", "value": 0.962},
      {"measurement": "relative viability", "setting": "NCI-H2170; first compound 0.002 µM", "value": 0.754},
      {"measurement": "relative viability", "setting": "NCI-H2170; first compound 0.006325 µM", "value": 0.232},
      {"measurement": "relative viability", "setting": "NCI-H2170; first compound 0.02 µM", "value": 0.203},
      {"measurement": "relative viability", "setting": "NCI-H1975; first compound 0.0002 µM", "value": 0.907},
      {"measurement": "relative viability", "setting": "NCI-H1975; first compound 0.000632 µM", "value": 0.586},
      {"measurement": "relative viability", "setting": "NCI-H1975; first compound 0.002 µM", "value": 0.353},
      {"measurement": "relative viability", "setting": "NCI-H1975; first compound 0.02 µM", "value": 0.105},
      {"measurement": "relative viability", "setting": "ChaGo-K-1; first compound 0.0002 µM", "value": 0.89},
      {"measurement": "relative viability", "setting": "ChaGo-K-1; first compound 0.000632 µM", "value": 0.824},
      {"measurement": "relative viability", "setting": "ChaGo-K-1; first compound 0.002 µM", "value": 0.439},
      {"measurement": "relative viability", "setting": "ChaGo-K-1; first compound 0.006325 µM", "value": 0.329},
      {"measurement": "relative viability", "setting": "ChaGo-K-1; first compound 0.02 µM", "value": 0.174},
      {"measurement": "relative viability", "setting": "NCI-H441; first compound 0.0002 µM", "value": 1.12},
      {"measurement": "relative viability", "setting": "NCI-H441; first compound 0.000632 µM", "value": 0.725},
      {"measurement": "relative viability", "setting": "NCI-H441; first compound 0.002 µM", "value": 0.538},
      {"measurement": "relative viability", "setting": "NCI-H441; first compound 0.006325 µM", "value": 0.87},
      {"measurement": "relative viability", "setting": "NCI-H23; first compound 0.0002 µM", "value": 0.964},
      {"measurement": "relative viability", "setting": "NCI-H23; first compound 0.000632 µM", "value": 0.859},
      {"measurement": "relative viability", "setting": "NCI-H23; first compound 0.002 µM", "value": 0.705},
      {"measurement": "relative viability", "setting": "NCI-H23; first compound 0.006325 µM", "value": 0.188},
      {"measurement": "relative viability", "setting": "NCI-H23; first compound 0.02 µM", "value": 0.147},
      {"measurement": "relative viability", "setting": "A-427; first compound 0.0002 µM", "value": 1},
      {"measurement": "relative viability", "setting": "A-427; first compound 0.000632 µM", "value": 1.04},
      {"measurement": "relative viability", "setting": "A-427; first compound 0.002 µM", "value": 0.686},
      {"measurement": "relative viability", "setting": "A-427; first compound 0.006325 µM", "value": 0.261},
      {"measurement": "relative viability", "setting": "A-427; first compound 0.02 µM", "value": 0.176},
      {"measurement": "relative viability", "setting": "NCI-H596; first compound 0.0002 µM", "value": 0.901},
      {"measurement": "relative viability", "setting": "NCI-H596; first compound 0.000632 µM", "value": 0.51},
      {"measurement": "relative viability", "setting": "NCI-H596; first compound 0.002 µM", "value": 0.419},
      {"measurement": "relative viability", "setting": "NCI-H596; first compound 0.006325 µM", "value": 0.365},
      {"measurement": "relative viability", "setting": "NCI-H596; first compound 0.02 µM", "value": 0.217},
      {"measurement": "relative viability", "setting": "HCC-366; first compound 0.0002 µM", "value": 0.85},
      {"measurement": "relative viability", "setting": "HCC-366; first compound 0.000632 µM", "value": 0.122},
      {"measurement": "relative viability", "setting": "HCC-366; first compound 0.002 µM", "value": 0.201},
      {"measurement": "relative viability", "setting": "HCC-366; first compound 0.006325 µM", "value": 0.0376},
      {"measurement": "relative viability", "setting": "HCC-366; first compound 0.02 µM", "value": 0.0329},
      {"measurement": "relative viability", "setting": "NCI-H1734; first compound 0.0002 µM", "value": 0.776},
      {"measurement": "relative viability", "setting": "NCI-H1734; first compound 0.000632 µM", "value": 0.743},
      {"measurement": "relative viability", "setting": "NCI-H1734; first compound 0.002 µM", "value": 0.404},
      {"measurement": "relative viability", "setting": "NCI-H1734; first compound 0.006325 µM", "value": 0.336},
      {"measurement": "relative viability", "setting": "NCI-H1734; first compound 0.02 µM", "value": 0.227},
      {"measurement": "relative viability", "setting": "NCI-H1666; first compound 0.0002 µM", "value": 0.853},
      {"measurement": "relative viability", "setting": "NCI-H1666; first compound 0.000632 µM", "value": 0.628},
      {"measurement": "relative viability", "setting": "NCI-H1666; first compound 0.002 µM", "value": 0.633},
      {"measurement": "relative viability", "setting": "NCI-H1666; first compound 0.006325 µM", "value": 0.614},
      {"measurement": "relative viability", "setting": "NCI-H1666; first compound 0.02 µM", "value": 0.372},
      {"measurement": "relative viability", "setting": "H3255; first compound 0.0002 µM", "value": 0.889},
      {"measurement": "relative viability", "setting": "H3255; first compound 0.000632 µM", "value": 0.909},
      {"measurement": "relative viability", "setting": "H3255; first compound 0.002 µM", "value": 0.66},
      {"measurement": "relative viability", "setting": "H3255; first compound 0.006325 µM", "value": 0.335},
      {"measurement": "relative viability", "setting": "H3255; first compound 0.02 µM", "value": 0.266},
      {"measurement": "relative viability", "setting": "PC-3 [JPC-3]", "value": 0.962}
    ]}
  ]
}
